The NIST ThermoML archive (doi:10.1016/j.tca.2016.08.003)
± gives the expanded uncertainty stated by the source.

Legend:
[1] = Crystal; DTA
[2] = Molar enthalpy of transition or fusion; details: Crystal; DSC

Compound | Normal melting temperature [1] [°C] | Molar enthalpy of transition or fusion [2] [kcal/mol]
O=[N+]([O-])[O-].[Rb+] [rubidium nitrate] | 309.50 ± 2 | 1.17 ± 0.0741
O=[N+]([O-])[O-].[K+] [potassium nitrate] | 333.80 ± 1.1 | 2.49 ± 0.0717
O=[N+]([O-])[O-].[Na+] [sodium nitrate] | 305.90 ± 0.6 | 3.7 ± 0.0813
